Data published in publication PMC9918186, “Interaction of Positively Charged Oligopeptides with Blood Plasma Proteins” (International Journal of Molecular Sciences, 2023).

Target: T1, BSA (Bos taurus, UniProt P02769)
T1 construct: purchased Sigma Aldrich
Experiment: ATR-FTIR Amide I deconvolution, secondary structure of BSA with peptide
Parameters: species or system bovine
Details: for Random Coil of BSA / β-Anti of BSA / β-Sheet of BSA / β-Turn of BSA / α-Helix of BSA: ATR-FTIR Amide I
From the text: The perturbation in protein structure conformation can be monitored by CD spectroscopy as well as the ATR-FTIR method. These secondary structure changes are confirmation of the interaction between the studied compound and the protein [64, 65, 66, 67]. The range of the wavenumber from 1700 to 1000 cm^−1 is the most varied region and with the richest information on protein spectra. The most characteristic bands are Amide I and Amide II, which originate from the C=O stretching vibration and C–N– stretching coupled with N–H bending, respectively. Amide I was detected for BSA at 1652 cm^−1 and GGF at 1637 cm^−1 (Figure 4). The differences in the position of these bands are connected with the variety in the secondary structure conformation, while Amide II consistently occurred at 1545 and 1546 cm^−1 on the BSA and GGF spectra, respectively (Figure 4). The much less intense peak of Amide III usually accrued by C–N– stretching and bending vibration was only noticed in the BSA spectrum at 1307 cm^−1 (Figure 4). The peaks detected at 1454 cm^−1 (BSA) and 1452 cm^−1 (GGF) appeared by CH3 group symmetric and asymmetric bending vibration (δs, δas). The absorption signal 1400 cm^−1 may be assigned to stretching vibration (ν) caused by the carboxylic group (COO^−). The studied peptides interact with BSA and GGF, which is manifested by a reduction in the intensity of the absorption peaks (Figure 4). With the increase in the ligand concentration in the protein solution, the intensity of the absorption peaks decreased (Figure 4). The Amide I and II in the BSA spectrum decreased above all after binding with L1 and slightly in the samples from L2 and L3. […] Moreover, after the complexation of the investigated peptides with GGF, an increase in the band 1060 cm^−1 was responsible for stretching vibration C–O absorption, which was manifested the most by L2 and L3 compounds.
The shape and intensity variation in the Amide I band is the confirmation of peptide L1, L2, and L3 interaction with the protein’s backbone. The hydrogen bonds in the protein structure are violated after the active molecules’ binding and influence the frequency of the C=O vibrations’ absorption. The frequency of stretching vibrations can be reduced after changes in hydrogen bonding in the protein, whereas the frequency of bending vibrations can be increased after ligand to protein complexation. The Byler and Susi procedure was used to analyse the secondary structure protein conformation. The quantity analysis of the secondary structure in the protein is mostly conducted based on Amide I deconvolution, and it is the most frequently analyzed vibration band, which is very vulnerable to the detection of changes in the structure. The fragment of each normalized spectrum with the Amide I peak was extracted and a second derivate was made. The self-deconvolution and curve fitting by the Gaussian/Lorenzian function allowed determination of the intensity and total area under the peaks, which corresponds with the contribution of the type of structure. The position of each band component may be assigned to a corresponding shape of the secondary structure: the α-helix (1660–1647 cm^−1), β-sheet (1640–1610 cm^−1), β-turn (1660–1680 cm^−1), β-antiparallel (1681–1695 cm^−1), and random coil (1650–1630 cm^−1) structures.
The infrared spectra were measured on Nicolet iS50 FTIR (Thermo Scientific, Waltham, MA, USA) spectrometer equipped with Attenuated Total Reflectance (ATR) accessory. The deuterated triglicyne sulphate (DTGS) detector and KBr beam splitter were applied. The spectral data were recorded within the range of 4000 to 600 cm^−1 with a resolution of 4 cm^−1 and 100 scans were averaged for each spectrum. The measurements were accomplished at room temperature. The concentration of blood plasma proteins BSA (Sigma Aldrich, USA), and GGF (Sigma Aldrich, USA) were 6.5 × 10^−4 moldm^−3. […]

T1 sequence (P02769 25-607): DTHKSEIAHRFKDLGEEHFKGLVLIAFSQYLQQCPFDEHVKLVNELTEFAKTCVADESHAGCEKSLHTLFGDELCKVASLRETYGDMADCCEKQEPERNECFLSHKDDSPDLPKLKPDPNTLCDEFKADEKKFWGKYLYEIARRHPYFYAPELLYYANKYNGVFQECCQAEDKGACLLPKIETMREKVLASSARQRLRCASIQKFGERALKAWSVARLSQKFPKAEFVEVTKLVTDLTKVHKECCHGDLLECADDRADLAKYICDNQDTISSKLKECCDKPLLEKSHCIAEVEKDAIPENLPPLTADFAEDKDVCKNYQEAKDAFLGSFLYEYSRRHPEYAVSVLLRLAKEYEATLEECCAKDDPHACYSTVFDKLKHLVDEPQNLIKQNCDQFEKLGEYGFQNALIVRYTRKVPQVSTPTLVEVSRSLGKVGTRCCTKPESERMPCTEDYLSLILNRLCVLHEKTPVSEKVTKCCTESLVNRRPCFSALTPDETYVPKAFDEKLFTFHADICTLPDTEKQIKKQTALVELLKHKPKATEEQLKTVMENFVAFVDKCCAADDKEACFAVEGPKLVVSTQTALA

Lys-Dab-Dab-Gly-Orn-Pro-His-Lys-Arg-Lys-Dbt [L1]
Random Coil of BSA (BSA/peptide 1:0.5): 26.54%
β-Anti of BSA (BSA/peptide 1:0.5): 0.77%
β-Sheet of BSA (BSA/peptide 1:0.5): 3.87%
β-Turn of BSA (BSA/peptide 1:0.5): 7.47%
α-Helix of BSA (BSA/peptide 1:0.5, BSA 6.5 × 10^−4 M, room temperature): 61.36%
Random Coil of BSA (BSA/peptide 1:1.0): 27.93%
α-Helix of BSA (BSA/peptide 1:1.0): 49.45%
β-Anti of BSA (BSA/peptide 1:1.0): 0.49%
β-Sheet of BSA (BSA/peptide 1:1.0): 8.28%
β-Turn of BSA (BSA/peptide 1:1.0): 13.86%
Random Coil of BSA (BSA/peptide 1:1.5): 27.61%
α-Helix of BSA (BSA/peptide 1:1.5): 49.40%
β-Anti of BSA (BSA/peptide 1:1.5): 0.31%
β-Sheet of BSA (BSA/peptide 1:1.5): 8.69%
β-Turn of BSA (BSA/peptide 1:1.5): 13.99%
differences in the secondary structure of BSA (ATR-FTIR, after peptide addition): 16%
decrease of β-antiparallel framework of albumin (ATR-FTIR, versus free BSA): about 2%
growth of β-sheet of albumin (ATR-FTIR, versus free BSA): 7.05%
growth of β-turn of albumin (ATR-FTIR, versus free BSA): 7.34%
increase in the share of the random structure of albumin (ATR-FTIR, versus free BSA): 2%
reduction in the α-helix of albumin (ATR-FTIR, versus free BSA): more than 14%
